The values below come from patent US8404643B2, “Metastin derivatives and use thereof” (priority 2005, dated 2013).

Square brackets hold non-standard residues; d marks the D form. Peptide text beside a SMILES is read from it. * marks the point of attachment. Phe(4-Cl) = N[C@@H](Cc1ccc(Cl)cc1)C(=O)O; Phe(3-F) = N[C@@H](Cc1cccc(F)c1)C(=O)O; Phe(3-Me) = Cc1cccc(C[C@H](N)C(=O)O)c1; Phe(4-Me) = Cc1ccc(C[C@H](N)C(=O)O)cc1; Arg(Me) = CNC(=N)NCCC[C@H](N)C(=O)O; Dap(CONH2) = NC(=O)NC[C@H](N)C(=O)O; Hyp = O=C(O)[C@@H]1C[C@@H](O)CN1; αMeF = C[C@](N)(Cc1ccccc1)C(=O)O; d4Pal = N[C@H](Cc1ccncc1)C(=O)O; Cit = NC(=O)NCCC[C@H](N)C(=O)O; NMeS = CN[C@@H](CO)C(=O)O; Aib = CC(C)(N)C(=O)O; NHPentyl = CCCCCN*; azaGly = NNC(=O)O; Sar = CNCC(=O)O

In the experiment the target is T1, hOT7T175 (Homo sapiens, UniProt Q969F8).
T1 construct: expressed in transfected cells
T1 sequence (Q969F8 whole entry L364H): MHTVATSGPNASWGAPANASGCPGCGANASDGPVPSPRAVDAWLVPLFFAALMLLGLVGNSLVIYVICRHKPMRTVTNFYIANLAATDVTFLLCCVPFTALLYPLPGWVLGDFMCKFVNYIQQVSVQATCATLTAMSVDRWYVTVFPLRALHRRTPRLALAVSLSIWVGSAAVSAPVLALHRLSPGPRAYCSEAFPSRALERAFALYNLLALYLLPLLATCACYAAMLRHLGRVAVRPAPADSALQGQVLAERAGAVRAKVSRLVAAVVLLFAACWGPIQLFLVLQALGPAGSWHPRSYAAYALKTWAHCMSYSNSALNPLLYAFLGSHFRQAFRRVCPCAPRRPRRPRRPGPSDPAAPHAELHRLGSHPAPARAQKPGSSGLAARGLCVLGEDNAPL
The experiment in a line: Assay for intracellular Ca ion level-increasing activity using FLIPR. In kind it is cell-based. The following applies: hOT7T175/CHO cells, relative to Metastin (1-54). In short, it runs like this:
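CHO/dhfr− cells stably transfected with hOT7T175, selected for high metastin response, loaded with Fluo3-AM for 1 h at 37 °C in HANKS/HBSS (pH 7.4) with probenecid. Peptides were diluted from 1×10^−3 M DMSO stock into HANKS/HBSS with 2.5 mM probenecid, 0.2% BSA, 0.1% CHAPS; intracellular Ca rise read by FLIPR.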
Regarding `CNC(=N)NCCC[C@H](NC(=O)[C@H](CC(C)C)NC(=O)NNC(=O)[C@H](Cc1ccc(C)cc1)NC(=O)[C@@H](NC(=O)[C@H](CC(N)=O)NC(=O)[C@@H]1C[C@@H](O)CN1C(=O)[C@@H](Cc1ccc(O)cc1)NC(C)=O)[C@@H](C)O)C(=O)N[C@@H](Cc1c[nH]c2ccccc12)C(N)=O` [Compound No. 874, Ac-D-Tyr-Hyp-Asn-Thr-Phe(4Me)-AzaGly-Leu-Arg(Me)-Trp-NH2] (Ac-[dY][Hyp]NT[Phe(4-Me)][azaGly]L[Arg(Me)]W-NH2), the “Specific Activity: intracellular Ca ion level-increasing activity [specific activity to Metastin (1-54)]” value was found to be 0.8.
The value for `CNC(=N)NCCC[C@H](NC(=O)[C@H](CC(C)C)NC(=O)NNC(=O)[C@H](Cc1ccc(Cl)cc1)NC(=O)[C@@H](NC(=O)[C@H](CC(N)=O)NC(=O)[C@H](CCCCN)NC(=O)[C@@H](Cc1ccc(O)cc1)NC(C)=O)[C@@H](C)O)C(=O)N[C@@H](Cc1c[nH]c2ccccc12)C(N)=O` [Compound No. 758, Ac-D-Tyr-Lys-Asn-Thr-Phe(4Cl)-AzaGly-Leu-Arg(Me)-Trp-NH2] (Ac-[dY]KNT[Phe(4-Cl)][azaGly]L[Arg(Me)]W-NH2) was 1.8.
The result for `CNC(=N)NCCC[C@H](NC(=O)[C@H](CC(C)C)NC(=O)NNC(=O)[C@](C)(Cc1ccccc1)NC(=O)[C@@H](NC(=O)[C@H](CC(N)=O)NC(=O)[C@@H]1C[C@@H](O)CN1C(=O)[C@@H](Cc1ccc(O)cc1)NC(C)=O)[C@@H](C)O)C(=O)N[C@@H](Cc1c[nH]c2ccccc12)C(N)=O` [Compound No. 868, Ac-D-Tyr-Hyp-Asn-Thr-αMePhe-AzaGly-Leu-Arg(Me)-Trp-NH2] (Ac-[dY][Hyp]NT[αMeF][azaGly]L[Arg(Me)]W-NH2) reads 1.4; that for `CNC(=N)NCCC[C@H](NC(=O)[C@H](CC(C)C)NC(=O)NNC(=O)[C@H](Cc1cccc(C)c1)NC(=O)[C@@H](NC(=O)[C@H](CC(N)=O)NC(=O)[C@@H]1C[C@@H](O)CN1C(=O)[C@@H](Cc1ccc(O)cc1)NC(C)=O)[C@@H](C)O)C(=O)N[C@@H](Cc1c[nH]c2ccccc12)C(N)=O` [Compound No. 872, Ac-D-Tyr-Hyp-Asn-Thr-Phe(3Me)-AzaGly-Leu-Arg(Me)-Trp-NH2] (Ac-[dY][Hyp]NT[Phe(3-Me)][azaGly]L[Arg(Me)]W-NH2), 0.7.
The value for `CNC(=N)NCCC[C@H](NC(=O)[C@H](CC(C)C)NC(=O)NNC(=O)[C@H](Cc1ccc(Cl)cc1)NC(=O)[C@@H](NC(=O)[C@H](CC(N)=O)NC(=O)[C@H](Cc1c[nH]c2ccccc12)NC(=O)[C@@H](Cc1ccc(O)cc1)NC(C)=O)[C@@H](C)O)C(=O)N[C@@H](Cc1c[nH]c2ccccc12)C(N)=O` [Compound No. 768, Ac-D-Tyr-Trp-Asn-Thr-Phe(4Cl)-AzaGly-Leu-Arg(Me)-Trp-NH2] (Ac-[dY]WNT[Phe(4-Cl)][azaGly]L[Arg(Me)]W-NH2) was 0.6; that for `CNC(=N)NCCC[C@H](NC(=O)[C@H](CC(C)C)NC(=O)NNC(=O)[C@H](Cc1ccccc1)NC(=O)[C@@H](NC(=O)[C@H](CNC(N)=O)NC(=O)[C@@H]1C[C@@H](O)CN1C(=O)[C@@H](Cc1ccc(O)cc1)NC(C)=O)[C@@H](C)O)C(=O)N[C@@H](Cc1c[nH]c2ccccc12)C(N)=O` [Compound No. 800, Ac-D-Tyr-Hyp-Alb-Thr-Phe-AzaGly-Leu-Arg(Me)-Trp-NH2] (Ac-[dY][Hyp][Dap(CONH2)]TF[azaGly]L[Arg(Me)]W-NH2) was 0.8.
In the case of `CNC(=N)NCCC[C@H](NC(=O)[C@H](CC(C)C)NC(=O)NNC(=O)[C@H](Cc1ccccc1)NC(=O)[C@@H](NC(=O)[C@H](CC(N)=O)NC(=O)[C@@H]1NCCN1C(=O)[C@@H](Cc1ccc(O)cc1)NC(C)=O)[C@@H](C)O)C(=O)N[C@@H](Cc1c[nH]c2ccccc12)C(N)=O` [Compound No. 734, Ac-D-Tyr-Izc-Asn-Thr-Phe-AzaGly-Leu-Arg(Me)-Trp-NH2], the “Specific Activity: intracellular Ca ion level-increasing activity [specific activity to Metastin (1-54)]” value amounted to 2.3.
With `CCCCCNC(=O)C[C@H](NC(=O)[C@@H](Cc1c[nH]c2ccccc12)NC(=O)[C@@H](Cc1ccc(O)cc1)NC(C)=O)C(=O)N[C@H](C(=O)N[C@@H](Cc1ccccc1)C(=O)NNC(=O)N[C@@H](CC(C)C)C(=O)N[C@@H](CCCNC(=N)NC)C(=O)N[C@@H](Cc1c[nH]c2ccccc12)C(N)=O)[C@@H](C)O` [Compound No. 714, Ac-D-Tyr-D-Trp-Asp(NHPen)-Thr-Phe-AzaGly-Leu-Arg(Me)-Trp-NH2] (Ac-[dY][dW]D(NHPentyl)TF[azaGly]L[Arg(Me)]W-NH2), the “Specific Activity: intracellular Ca ion level-increasing activity [specific activity to Metastin (1-54)]” value is reported as 0.7.
As for `CNC(=N)NCCC[C@H](NC(=O)[C@H](CC(C)C)NC(=O)NNC(=O)[C@H](Cc1ccccc1)NC(=O)[C@H](CO)N(C)C(=O)[C@H](CC(N)=O)NC(=O)[C@@H]1C[C@@H](O)CN1C(=O)[C@@H](Cc1ccc(O)cc1)NC(C)=O)C(=O)N[C@@H](Cc1c[nH]c2ccccc12)C(N)=O` [Compound No. 809, Ac-D-Tyr-Hyp-Asn-NMeSer-Phe-AzaGly-Leu-Arg(Me)-Trp-NH2] (Ac-[dY][Hyp]N[NMeS]F[azaGly]L[Arg(Me)]W-NH2), the “Specific Activity: intracellular Ca ion level-increasing activity [specific activity to Metastin (1-54)]” value came to 1.0.
The value for `CNC(=N)NCCC[C@H](NC(=O)[C@H](CC(C)C)NC(=O)NNC(=O)[C@H](Cc1cccc(F)c1)NC(=O)[C@@H](NC(=O)[C@H](CC(N)=O)NC(=O)[C@@H]1C[C@@H](O)CN1C(=O)[C@@H](Cc1ccc(O)cc1)NC(C)=O)[C@@H](C)O)C(=O)N[C@@H](Cc1c[nH]c2ccccc12)C(N)=O` [Compound No. 765, Ac-D-Tyr-Hyp-Asn-Thr-Phe(3F)-AzaGly-Leu-Arg(Me)-Trp-NH2] (Ac-[dY][Hyp]NT[Phe(3-F)][azaGly]L[Arg(Me)]W-NH2) was 2.6; that for `CNC(=N)NCCC[C@H](NC(=O)[C@H](CC(C)C)NC(=O)NNC(=O)[C@H](Cc1ccccc1)NC(=O)[C@@H](NC(=O)[C@H](CC(N)=O)NC(=O)[C@@H](Cc1ccc(O)cc1)NC(C)=O)[C@@H](C)O)C(=O)N[C@@H](Cc1c[nH]c2ccccc12)C(N)=O` [Compound No. 777, Ac-D-Tyr-Asn-Thr-Phe-AzaGly-Leu-Arg(Me)-Trp-NH2] (Ac-[dY]NTF[azaGly]L[Arg(Me)]W-NH2) was 1.8.
The result for `CNC(=N)NCCC[C@H](NC(=O)[C@H](CC(C)C)NC(=O)NNC(=O)[C@H](Cc1ccccc1)NC(=O)[C@@H](NC(=O)[C@H](CCCNC(N)=O)NC(=O)[C@@H]1C[C@@H](O)CN1C(=O)[C@@H](Cc1ccc(O)cc1)NC(C)=O)[C@@H](C)O)C(=O)N[C@@H](Cc1c[nH]c2ccccc12)C(N)=O` [Compound No. 845, Ac-D-Tyr-Hyp-Cit-Thr-Phe-AzaGly-Leu-Arg(Me)-Trp-NH2] (Ac-[dY][Hyp][Cit]TF[azaGly]L[Arg(Me)]W-NH2) reads 1.0; that for `CNC(=N)NCCC[C@H](NC(=O)[C@H](CC(C)C)NC(=O)NNC(=O)[C@H](Cc1ccc(Cl)cc1)NC(=O)[C@@H](NC(=O)[C@H](CC(N)=O)NC(=O)[C@@H]1C[C@@H](O)CN1C(=O)[C@@H](Cc1ccc(O)cc1)NC(C)=O)[C@@H](C)O)C(=O)N[C@@H](Cc1c[nH]c2ccccc12)C(N)=O` [Compound No. 767, Ac-D-Tyr-Hyp-Asn-Thr-Phe(4Cl)-AzaGly-Leu-Arg(Me)-Trp-NH2] (Ac-[dY][Hyp]NT[Phe(4-Cl)][azaGly]L[Arg(Me)]W-NH2), 1.5; that for `CNC(=N)NCCC[C@H](NC(=O)[C@H](CC(C)C)NC(=O)NNC(=O)[C@H](Cc1ccccc1)NC(=O)[C@@H](NC(=O)[C@H](CC(N)=O)NC(=O)C(C)(C)NC(=O)[C@@H](Cc1ccc(O)cc1)NC(C)=O)[C@@H](C)O)C(=O)N[C@@H](Cc1c[nH]c2ccccc12)C(N)=O` [Compound No. 727, Ac-D-Tyr-Aib-Asn-Thr-Phe-AzaGly-Leu-Arg(Me)-Trp-NH2] (Ac-[dY][Aib]NTF[azaGly]L[Arg(Me)]W-NH2), 1.5.
On to `CNC(=N)NCCC[C@H](NC(=O)[C@H](CC(C)C)NC(=O)NNC(=O)[C@H](Cc1ccccc1)NC(=O)[C@@H](NC(=O)[C@H](CC(N)=O)NC(=O)CN(C)C(=O)[C@@H](Cc1ccc(O)cc1)NC(C)=O)[C@@H](C)O)C(=O)N[C@@H](Cc1c[nH]c2ccccc12)C(N)=O` [Compound No. 731, Ac-D-Tyr-Sar-Asn-Thr-Phe-AzaGly-Leu-Arg(Me)-Trp-NH2] (Ac-[dY][Sar]NTF[azaGly]L[Arg(Me)]W-NH2), for which the “Specific Activity: intracellular Ca ion level-increasing activity [specific activity to Metastin (1-54)]” value is recorded as 8.8.
Take `CNC(=N)NCCC[C@H](NC(=O)[C@H](CC(C)C)NC(=O)NNC(=O)[C@H](Cc1ccccc1)NC(=O)[C@@H](NC(=O)[C@H](CNC(N)=O)NC(=O)[C@@H](Cc1ccncc1)NC(=O)[C@@H](Cc1ccc(O)cc1)NC(C)=O)[C@@H](C)O)C(=O)N[C@@H](Cc1c[nH]c2ccccc12)C(N)=O` [Compound No. 718, Ac-D-Tyr-D-Pya(4)-Alb-Thr-Phe-AzaGly-Leu-Arg(Me)-Trp-NH2] (Ac-[dY][d4Pal][Dap(CONH2)]TF[azaGly]L[Arg(Me)]W-NH2): the “Specific Activity: intracellular Ca ion level-increasing activity [specific activity to Metastin (1-54)]” value came to 2.6.
The value for `CNC(=N)NCCC[C@H](NC(=O)[C@H](CC(C)C)NC(=O)NNC(=O)[C@H](Cc1ccccc1)NC(=O)[C@@H](NC(=O)[C@H](CC(N)=O)NC(=O)C(CC1CCNCC1)NC(=O)[C@@H](Cc1ccc(O)cc1)NC(C)=O)[C@@H](C)O)C(=O)N[C@@H](Cc1c[nH]c2ccccc12)C(N)=O` (mixture of isomers) [Compound No. 774, Ac-D-Tyr-DL-Ala(Pip)-Asn-Thr-Phe-AzaGly-Leu-Arg(Me)-Trp-NH2] was 2.0.
